Assay results: patent US9994556B2, “Triazole modified coumarin and biphenyl amide-based HSP90 inhibitors” (THE UNIVERSITY OF KANSAS, priority 2014, dated 2018)
“Also recorded” adds a separate entry of the source. Where two headings read alike, the source gives them in different places.

What was measured:
MDA1986 cell line = assay: Promega CellTiter-Glo (CTG) luminescent assay, MDA1986; type: cell-based; details: 72 hr, mean ± standard deviation, read-out: IC50 MDA1986
Method: (§1) b) Promega CellTiter-Glo (CTG) Luminescent Assay
(§2) Antiproliferative activities against MDA-MB-468LN, MDA1986 and JMAR cell lines were performed with 384-well white plates with the Promega CellTiter-Glo (CTG) luminescent assay with 72 hr compound treatment. Data analysis was performed using GraphPad Prism. Selected data were further checked with MTS/PMS cell viability assay with 96-well plates, which correlated well with Promega CellTiter-Glo luminescent assay.

[1] = system: Hsp90 client proteins Her2, Akt, Raf-1 and CDK6; assay: Western blot analyses of Hsp90 client protein degradation in MCF-7 cell lysates; type: cell-based, human; details: 24 h; for Hsp90 client proteins Her2, Akt and Raf-1 (Western blot): MCF-7 lysates, L = 1/2 and H = 5 times the antiproliferative IC50
Method: MCF-7 cells were cultured as described above and treated with various concentrations of drug, Geldanamycin (GDA or G) in DMSO (1% DMSO final concentration), or vehicle (DMSO) for 24 hr. Cells were harvested in cold PBS and lysed in RIPA lysis buffer containing 1 mM PMSF, 2 mM sodium orthovanadate, and protease inhibitors on ice for 1 hr. Lysates were clarified at 14000 g for 10 min at 4° C. Protein concentrations were determined using the Pierce BCA protein assay kit per the manufacturer's instructions. Equal amounts of protein (15 μg) were electrophoresed under reducing conditions, transferred to a PVDF membrane, and immunoblotted with the corresponding specific antibodies. Membranes were incubated with an appropriate horseradish peroxidase-labeled secondary antibody, developed with a chemiluminescent substrate, and visualized.

MCF-7 cells = assay: MTS/PMS cell viability assay, MCF-7; type: cell-based; details: Homo sapiens, MCF7
Method: (§3) a) MTS/PMS Cell Viability Assay (SKBr3 and MCF-7 Cells)
(§4) Cells were maintained in a 1:1 mixture of Advanced DMEM/F12 (Gibco) supplemented with non-essential amino acids, L-glutamine (2 mM), streptomycin (500 μg/mL), penicillin (100 units/mL), and 10% FBS. Cells were grown to confluence in a humidified atmosphere (37° C., 5% CO2), seeded (2000/well, 100 μL) in 96-well plates, and allowed to attach overnight. Compound at varying concentrations in DMSO (1% DMSO final concentration) was added, and cells were returned to the incubator for 72 hr. At 72 hr, the number of viable cells was determined using an MTS/PMS cell proliferation kit (Promega) per the manufacturer's instructions. Cells incubated in 1% DMSO were used at 100% proliferation, and values were adjusted accordingly. IC50 values were calculated from separate experiments performed in triplicate using GraphPad Prism.

MDA-MB-468LN cell line = assay: Promega CellTiter-Glo (CTG) luminescent assay, MDA-MB-468LN; type: cell-based; details: Homo sapiens, 72 hr, mean ± standard deviation
Method: as §1, §2

LNCaP cells = assay: Sulforhodamine B assay, LNCaP; type: cell-based; details: Homo sapiens, mean ± standard deviation
Method: (§5) c) Sulforhodamine B Assay
(§6) The sulforhodamine B assay is used to measure drug-induced cytotoxicity and cell proliferation for large-scale drug-screening applications. Its principle is based on the ability of the protein dye sulforhodamine B to bind electrostatically on pH dependent protein basic amino acid residues of trichloroacetic acid-fixed cells. The aim is to evaluate samples showing selective growth inhibition or cell killing of particular tumor cell lines.
(§7) The SRB assay is performed by treating cells using a 10 point dose-response curve. The cells are fixed with trichloroacetic acid solution and stained with sulforhodamine B dye. The stained cells are then solubilized with 10 mM Tris buffer and read for absorbance at 565 nm.
(§8) Percentage growth is calculated at each of the drug concentration levels using the absorbance raw data.
(§9) Percentage growth inhibition is calculated as: [(Ti−Tz)/(C−Tz)]×100 for concentrations for which Ti≥Tz. [(Ti−Tz)/(Tz)]×100 for concentrations for which Ti<Tz.
(§10) Ti=Absorbance of wells at a given drug concentration level.
(§11) Tz=Absorbance time zero wells
(§12) C=Absorbance of untreated wells (media and cells only)
(§13) After growth inhibition values have been calculated, the data is plotted on Graphpad Prism software. Data is entered and plotted on a sigmoidal dose-response curve using non-linear regression.

PC3-MM2 cells = assay: Sulforhodamine B assay, PC3-MM2; type: cell-based; details: Homo sapiens, PC3MM2, mean ± standard deviation
Method: as §5, §6, §7, §8, §9, §10, §11, §12, §13

JMAR cell line = assay: Promega CellTiter-Glo (CTG) luminescent assay, JMAR; type: cell-based; details: 72 hr, mean ± standard deviation
Method: as §1, §2

SKBr3 cells = assay: MTS/PMS cell viability assay, SKBr3; type: cell-based; details: Homo sapiens, SK-BR-3
Method: as §3, §4

[2] = system: SKBr3, MDA-MB-468LN, MCF-7, MDA1986, JMAR, PC3-MM2 and LNCaP cell lines; assay: Antiproliferative activity against the panel of cancer cell lines; type: cell-based; details: for activity against all cell lines tested: panel of seven cancer cell lines
Method: as §3
as §4, with “Prism. […]” for “Prism.”
as §1
as §2, with “assay. […]” for “assay.”
as §5, §6, §7

Hsp90 C-terminus = assay: Proteolytic fingerprinting assay of Hsp90 from rabbit reticulocyte lysate; type: binding; details: 5 mM compound; band not detected for vehicle control
Method: e) Proteolytic Fingerprinting Assay
Rabbit reticulocyte (Green Hectares) incubated under conditions of protein synthesis at 30° C. in the presence of compound or vehicle (1% DMSO) for 10 minutes. Each reaction mixture contained 66.6% rabbit reticulocyte and 33.3% ATP regenerating system (10 mM creatine phosphate and 20 μg mL^−1 creatine phosphokinase) and a final concentration of 75 mM KCl. Each reaction mixture contained the indicated amount of compound. After incubating, the samples were immediately placed on ice and the indicated amount of TPCK-treated trypsin (Worthington) was added to each sample. The samples digested on ice for an additional 6 minutes and the reactions were quenched by the addition of Laemmli sample buffer followed by immediate boiling. Equal amounts of each sample were electrophoresed under reducing conditions (12% acrylamide gels), transferred to PVDF, and immunoblotted with an antibody specific to the Hsp90 C-terminus. Membranes were incubated with an appropriate horseradish peroxidase-labeled secondary antibody, developed with a chemiluminescent substrate, and visualized.

[3] = Table 2 biphenyl triazole analogues
[4] = Table 2 biphenyl triazole analogues, 72 hr, mean ± standard deviation, read-out: IC50 MCF-7
[5] = read-out: IC50 against MCF-7 cell line
[6] = Table 2 biphenyl triazole analogues, 72 hr, mean ± standard deviation, read-out: IC50 SKBr3
[7] = Table 1 coumarin-based triazoles
[8] = Table 1 coumarin-based triazoles, 72 hr, mean ± standard deviation, read-out: IC50 MCF-7
[9] = Table 1 coumarin-based triazoles, 72 hr, mean ± standard deviation, at least two experiments in triplicate, read-out: IC50 SKBr3

| IC50 (MCF-7 cells; [4]) | IC50 (MDA-MB-468LN cell line; [3]) | IC50 (LNCaP cells; [3]) | IC50 (PC3-MM2 cells; [3]) | IC50 (SKBr3 cells; [6]) | IC50 (MCF-7 cells; [8]) | IC50 (MDA-MB-468LN cell line; [7]) | IC50 (LNCaP cells; [7]) | IC50 (PC3-MM2 cells; [7]) | IC50 (SKBr3 cells; [9]) | Compound | IC50 (MDA1986 cell line; [3]) | Hsp90 client proteins Her2, Akt and Raf-1 (Western blot) [1] | IC50 (JMAR cell line; [3]) | IC50 (MDA1986 cell line; [7]) | IC50 (JMAR cell line; [7]) | other results |
| --- | --- | --- | --- | --- | --- | --- | --- | --- | --- | --- | --- | --- | --- | --- | --- | --- |
| 0.27 ± 0.06 µM | 0.17 µM | 0.24 ± 0.07 µM | 0.44 ± 0.19 µM | 0.16 ± 0.02 µM | – | – | – | – | – | COc1ccc(Cn2cc(C(=O)Nc3ccc(-c4ccc(OC5CCN(C)CC5)cc4)cc3)nn2)cc1 [5g, 1-(4-Methoxybenzyl)-N-(4′-((1-methylpiperidin-4-yl)oxy)-[1,1′-biphenyl]-4-yl)-1H-1,2,3-triazole-4-carboxamide] | 0.48 ± 0.09 µM | decreased; also recorded: Clear degradation | 0.61 ± 0.09 µM | – | – | IC50 (MCF-7 cells; [5]): 0.27 µM |
| – | – | – | – | – | 1.08 µM | 2.4 µM | 15.5 ± 8.75 µM | 9.8 ± 13.5 µM | 0.99 ± 0.08 µM | Cc1c(OC2CCN(C)CC2)ccc2cc(NC(=O)c3cn(Cc4ccccc4)nn3)c(=O)oc12 [4b, 1-Benzyl-N-(8-methyl-7-((1-methylpiperidin-4-yl)oxy)-2-oxo-2H-chromen-3-yl)-1H-1,2,3-triazole-4-carboxamide] | – | – | – | 1.6 ± 0.21 µM | 2.1 ± 0.23 µM | activity against all cell lines tested [2]: low micromolar |
| – | – | – | – | – | – | – | – | – | – | CO[C@@H]1[C@@H](OC(N)=O)[C@@H](O)[C@H](Oc2ccc3c(O)c(NC(=O)c4ccc(O)c(CC=C(C)C)c4)c(=O)oc3c2C)OC1(C)C [novobiocin, reference compound] | – | – | – | – | – | 50 kDa Hsp90 fragment on trypsin proteolysis (C-terminal Hsp90 antibody) (Hsp90 C-terminus): 50 kDa band was detected |
| – | – | – | – | – | 1.61 ± 0.06 µM | 2.69 ± 1.33 µM | 3.49 ± 0.3 µM | 7.2 ± 0.15 µM | 1.15 ± 0.19 µM | COc1cccc(Cn2cc(C(=O)Nc3cc4ccc(OC5CCN(C)CC5)c(C)c4oc3=O)nn2)c1 [4o, 1-(3-Methoxybenzyl)-N-(8-methyl-7-((1-methylpiperidin-4-yl)oxy)-2-oxo-2H-chromen-3-yl)-1H-1,2,3-triazole-4-carboxamide] | – | degraded | – | 1.34 ± 0.31 µM | 1.49 ± 0.31 µM | – |
| – | – | – | – | – | 1.29 ± 0.16 µM | 0.99 ± 0.24 µM | 1.2 ± 0.06 µM | 3.13 ± 0.14 µM | 0.61 µM | Cc1c(OC2CCN(C)CC2)ccc2cc(NC(=O)c3cn(CC4CCCCC4)nn3)c(=O)oc12 [4q, 1-(Cyclohexylmethyl)-N-(8-methyl-7-((1-methylpiperidin-4-yl)oxy)-2-oxo-2H-chromen-3-yl)-1H-1,2,3-triazole-4-carboxamide] | – | degraded | – | 0.24 ± 0.32 µM | 0.3 ± 0.26 µM | – |
| – | – | – | – | – | 1.14 ± 0.18 µM | 4.6 µM | 13.3 ± 11.9 µM | 3.9 ± 5.11 µM | 0.71 ± 0.14 µM | Cc1c(OC2CCN(C)CC2)ccc2cc(NC(=O)c3cn(-c4cccc(Cl)c4)nn3)c(=O)oc12 [4f, 1-(3-Chlorophenyl)-N-(8-methyl-7-((1-methylpiperidin-4-yl)oxy)-2-oxo-2H-chromen-3-yl)-1H-1,2,3-triazole-4-carboxamide] | – | degraded | – | 6.4 µM | 6.4 µM | – |
| – | – | – | – | – | 1.33 ± 0.13 µM | 1.1 ± 0.21 µM | 4.72 ± 0.71 µM | 2.69 µM | 0.94 ± 0.02 µM | Cc1c(OC2CCN(C)CC2)ccc2cc(NC(=O)c3cn(-c4ccccc4)nn3)c(=O)oc12 [4a, N-(8-methyl-7-((1-methylpiperidin-4-yl)oxy)-2-oxo-2H-chromen-3-yl)-1-phenyl-1H-1,2,3-triazole-4-carboxamide] | – | – | – | 1.5 ± 3.4 µM | 2.3 ± 0.4 µM | activity against all cell lines tested [2]: low micromolar |
| 0.5 ± 0.02 µM | 0.34 ± 0.07 µM | 0.65 ± 0.54 µM | 0.55 ± 0.46 µM | 0.17 ± 0.02 µM | – | – | – | – | – | CN1CCC(Oc2ccc(-c3ccc(NC(=O)c4cn(Cc5ccccc5)nn4)cc3)cc2)CC1 [5b, 1-Benzyl-N-(4′-((1-methylpiperidin-4-yl)oxy)-[1,1′-biphenyl]-4-yl)-1H-1,2,3-triazole-4-carboxamide] | 0.28 ± 0.1 µM | decreased; also recorded: Clear degradation | 0.5 ± 0.06 µM | – | – | client proteins Her2, Akt, Raf-1 and CDK6 (Western blot, concentration series) ([1]; MCF-7 cells, increasing concentrations): degraded in a concentration-dependent manner; IC50 (MCF-7 cells; [5]): 0.5 µM; times more potent than 5a against all the cell lines evaluated ([2]; 5b compared with 5a): 2.5-8 times; IC50 (SKBr3 cells; read-out: IC50 against SKBr3 cell line): 0.17 µM |
| 10.5 ± 0.4 µM | 2.61 ± 0.76 µM | 1.01 ± 1.39 µM | > 100 µM | 3.72 ± 0.68 µM | – | – | – | – | – | CN1CCC(Oc2ccc(-c3ccc(NC(=O)c4cn(Cc5ccc(C(C)(C)C)cc5)nn4)cc3)cc2)CC1 [5h, 1-(4-tert-Butylbenzyl)-N-(4′-((1-methylpiperidin-4-yl)oxy)-[1,1′-biphenyl]-4-yl)-1H-1,2,3-triazole-4-carboxamide] | 2.34 ± 1.81 µM | – | 3.49 ± 2.05 µM | – | – | – |
